Patent US10344019B2 (priority 2010, dated 2019)

How the values were obtained:
Assay type in all cases: cell-based
[1] = system: HCV 2a Rluc cells (NS5A chimeric genotype 2a JFH-1 replicon with genotype 2a J6 strain NS5A gene, M31 present); experiment: HCV replicon reporter assay, genotype 2a J6 (M31 present); details: Hepatitis C virus, read-out: 2a J6
Method in brief: (§1)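 Replicon cells stably carrying the listed RLuc-encoding dicistronic replicons were seeded and treated with DMSO serial dilutions of compound (10 mM stocks) diluted into culture medium. After 72 h, cells were lysed and Renilla luciferase activity measured. EC50 was derived by non-linear regression.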

[2] = system: HCV 1b RLuc cells (dicistronic genotype 1b Con1 replicon, RLuc reporter); experiment: microbe, parasite or virus in culture; details: Hepatitis C virus, read-out: 1b (nM)
Method in brief: as §1

[3] = system: HCV 3a RLuc cells (NS5A chimeric genotype 1b Con1 replicon with consensus genotype 3a NS5A gene); experiment: microbe, parasite or virus in culture; details: Hepatitis C virus, read-out: 3a, genotype 3a replicon
Method in brief: as §1

[4] = system: HCV 1a RLuc cells (dicistronic genotype 1a H77 replicon, RLuc reporter); experiment: microbe, parasite or virus in culture; details: Hepatitis C virus, genotype 1a replicon; read-out: 1a
Method in brief: as §1

[5] = system: HCV 4a Rluc cells (NS5A chimeric genotype 1b Con1 replicon with genotype 4a NS5A gene); experiment: microbe, parasite or virus in culture; details: Hepatitis C virus, read-out: 4a
Method in brief: as §1

[6] = system: HCV 2a JFH-1 Rluc cells (dicistronic genotype 2a JFH-1 replicon, RLuc reporter); experiment: microbe, parasite or virus in culture; details: Hepatitis C virus, genotype 2a JFH-1 replicon; read-out: 2a JFH
Method in brief: as §1

[7] = system: HCV 2b Rluc cells (NS5A chimeric genotype 2a JFH-1 replicon with genotype 2b MD2b-1 NS5A gene, M31 present); experiment: microbe, parasite or virus in culture; details: Hepatitis C virus, read-out: 2b
Method in brief: as §1

| SMILES | EC50 [1] [nM] | EC50 [2] [nM] | EC50 [3] [nM] | EC50 [4] [nM] | EC50 [5] [nM] | EC50 [6] [nM] | EC50 [7] [nM] |
| --- | --- | --- | --- | --- | --- | --- | --- |
| COC(=O)N[C@H](C(=O)N1CCC[C@H]1c1nc(Cl)c(-c2ccc(-c3ccc(-c4[nH]c([C@@H]5CCCN5C(=O)[C@@H](NC(=O)OC)C(C)C)nc4Cl)cc3)cc2)[nH]1)C(C)C [Example 352] | 1 to 44 | 0.011 | 0.001 to 0.99 | 0.001 to 0.999 | 0.001 to 0.99 | 0.001 to 0.999 | 1 to 44 |
| COC(=O)N[C@H](C(=O)N1CC2(C[C@H]1c1nc3c([nH]1)-c1ccc(-c4ccc5c(ccc6nc([C@@H]7CCCN7C(=O)[C@H](NC(=O)OC)c7ccccc7)[nH]c65)c4)cc1CC3)OCCO2)C(C)C [Example 355] | 1 to 44 | 0.095 | 0.001 to 0.99 | 0.001 to 0.999 | 0.001 to 0.99 | 0.001 to 0.999 | 1 to 44 |
| COC(=O)N[C@H](C(=O)N1CC2(C[C@H]1c1nc3ccc4cc(-c5ccc6c(ccc7nc([C@@H]8C[C@H]9C[C@H]9N8C(=O)[C@H](NC(=O)OC)c8ccccc8)[nH]c76)c5)ccc4c3[nH]1)OCCO2)C(C)C [Example 356] | 0.001 to 0.999 | 0.022 | 0.001 to 0.99 | 0.001 to 0.999 | 0.001 to 0.99 | 0.001 to 0.999 | 0.001 to 0.999 |
| COC(=O)N[C@H](C(=O)N1[C@@H]2CC[C@@H](C2)[C@H]1c1nc2ccc3cc(-c4ccc5c(ccc6nc([C@@H]7CCCN7C(=O)[C@H](NC(=O)C(C)(C)O)c7ccccc7)[nH]c65)c4)ccc3c2[nH]1)C(C)C [Example 357] | 0.001 to 0.999 | 0.044 | 0.001 to 0.99 | 0.001 to 0.999 | 0.001 to 0.99 | 0.001 to 0.999 | 0.001 to 0.999 |
| COC(=O)N[C@H](C(=O)N1[C@@H]2CC[C@@H](C2)[C@H]1c1nc2ccc3cc(-c4ccc5c(ccc6nc([C@@H]7CCCN7C(=O)[C@H](NC(=O)N7CCOCC7)c7ccccc7)[nH]c65)c4)ccc3c2[nH]1)C(C)C [Example 358] | 0.001 to 0.999 | 0.057 | 0.001 to 0.99 | 0.001 to 0.999 | 0.001 to 0.99 | 0.001 to 0.999 | 0.001 to 0.999 |
| COC(=O)N[C@H](C(=O)N1CCC[C@H]1c1nc2ccc3cc(-c4ccc5c(ccc6nc([C@@H]7CC8(CN7C(=O)[C@@H](NC(=O)OC)C(C)C)OCCO8)[nH]c65)c4)ccc3c2[nH]1)C(C)C [Example 363] | 1 to 44 | 0.025 | 1 to 4.99 | 0.001 to 0.999 | 0.001 to 0.99 | 0.001 to 0.999 | > 44 |
| COC(=O)N[C@H](C(=O)N1CCC[C@H]1c1ncc(-c2cc3c4c(c2)OCc2cc(-c5cnc([C@@H]6CCCN6C(=O)[C@H](NC(=O)OC)c6ccccc6)[nH]5)cc(c2-4)OC3)[nH]1)C1CCOCC1 [Example 364] | 0.001 to 0.999 | 0.335 | 0.001 to 0.99 | 0.001 to 0.999 | 0.001 to 0.99 | 0.001 to 0.999 | 0.001 to 0.999 |
| COC(=O)N[C@H](C(=O)N1CC2(C[C@H]1c1nc3ccc4cc(-c5ccc6c(c5)CCc5nc(C7CCCN7C(=O)[C@H](NC(=O)OC)c7ccccc7)[nH]c5-6)ccc4c3[nH]1)OCCO2)C(C)C (stereo partly shown) [Example 365] | 0.001 to 0.999 | 0.11 | 0.001 to 0.99 | 0.001 to 0.999 | 0.001 to 0.99 | 0.001 to 0.999 | 0.001 to 0.999 |
| CC#Cc1cc(-c2cnc([C@@H]3CCCN3C(=O)[C@H](NC(=O)OC)c3ccccc3)[nH]2)ccc1-c1ccc2c(ccc3nc([C@@H]4CCCN4C(=O)[C@@H](NC(=O)OC)C(C)C)[nH]c32)c1 [Example 374] | 0.001 to 0.999 | 0.019 | 0.001 to 0.99 | 0.001 to 0.999 | 0.001 to 0.99 | 0.001 to 0.999 | 1 to 44 |
| COC(=O)N[C@H](C(=O)N1[C@@H]2CC[C@@H](C2)[C@H]1c1ncc(-c2ccc(-c3ccc4c(ccc5nc([C@@H]6C[C@H]7C[C@H]7N6C(=O)[C@H](NC(=O)OC)c6ccccc6)[nH]c54)c3)cc2)[nH]1)C(C)C [Example 379] | 0.001 to 0.999 | 0.009 | 0.001 to 0.99 | 0.001 to 0.999 | 0.001 to 0.99 | 0.001 to 0.999 | > 44 |
| COC(=O)N[C@H](C(=O)N1CCC[C@H]1c1nc2ccc3cc(-c4ccc5cc(-c6[nH]c([C@@H]7CCCN7C(=O)[C@H](NC(=O)OC)c7ccccc7)nc6Cl)ccc5c4)ccc3c2[nH]1)C(C)C [Example 385] | 1 to 44 | 0.007 | 0.001 to 0.99 | 0.001 to 0.999 | 0.001 to 0.99 | 0.001 to 0.999 | 1 to 44 |
| COC(=O)N[C@H](C(=O)N1CCC[C@H]1c1nc(Cl)c(-c2ccc(-c3ccc4c(ccc5nc([C@@H]6[C@H]7CC[C@H](C7)N6C(=O)[C@@H](NC(=O)OC)C(C)C)[nH]c54)c3)cc2)[nH]1)C(C)C [Example 386] | > 44 | 0.015 | 0.001 to 0.99 | 0.001 to 0.999 | 0.001 to 0.99 | 0.001 to 0.999 | > 44 |
| COC(=O)N[C@H](C(=O)N1CC2(CC2)C[C@H]1c1nc2ccc3cc(-c4ccc(-c5cnc([C@@H]6[C@H]7CC[C@H](C7)N6C(=O)[C@@H](NC(=O)OC)C(C)C)[nH]5)cc4)ccc3c2[nH]1)C(C)C [Example 387] | > 44 | 0.009 | 0.001 to 0.99 | 0.001 to 0.999 | 0.001 to 0.99 | 0.001 to 0.999 | > 44 |
| COC(=O)N[C@H](C(=O)N1CCC[C@H]1c1nc2ccc3cc(-c4ccc(-c5[nH]c([C@@H]6[C@H]7CC[C@H](C7)N6C(=O)[C@@H](NC(=O)OC)C(C)C)nc5Cl)cc4)ccc3c2[nH]1)C(C)C [Example 388] | > 44 | 0.008 | 0.001 to 0.99 | 0.001 to 0.999 | 0.001 to 0.99 | 0.001 to 0.999 | > 44 |
| COC(=O)N[C@H](C(=O)N1[C@@H]2C[C@@H]2C[C@H]1c1nc(Cl)c(-c2ccc(-c3ccc4c(ccc5nc([C@@H]6C[C@H]7C[C@H]7N6C(=O)[C@@H](NC(=O)OC)C(C)C)[nH]c54)c3)cc2F)[nH]1)C(C)C [Example 395] | > 44 | 0.004 | 0.001 to 0.99 | 0.001 to 0.999 | 0.001 to 0.99 | 0.001 to 0.999 | > 44 |
| COC(=O)N[C@H](C(=O)N1CCC[C@H]1c1ncc(-c2ccc3c(c2)COc2c-3ccc3c2ccc2nc([C@@H]4CCCN4C(=O)[C@@H](NC(=O)OC)C(C)C)[nH]c23)[nH]1)C(C)C [Example 400] | > 44 | 0.017 | 0.001 to 0.99 | 0.001 to 0.999 | 0.001 to 0.99 | 0.001 to 0.999 | > 44 |
| COC(=O)N[C@H](C(=O)N1CCC[C@H]1c1nc2ccc3cc(-c4ccc5c(ccc6nc([C@@H]7CCCN7C(=O)[C@H](NCC(F)(F)F)c7ccccc7)[nH]c65)c4)ccc3c2[nH]1)C(C)C [Example 403] | 0.001 to 0.999 | 0.014 | 0.001 to 0.99 | 0.001 to 0.999 | 0.001 to 0.99 | 0.001 to 0.999 | 0.001 to 0.999 |
| COC(=O)N[C@H](C(=O)N1CCC[C@H]1c1ncc(-c2cc3c4c(ccc5cc(-c6cnc([C@@H]7CCCN7C(=O)[C@@H](NC(=O)OC)C(C)C)[nH]6)cc(c54)OC3)c2)[nH]1)C(C)C [Example 408] | > 44 | 0.022 | 0.001 to 0.99 | 0.001 to 0.999 | 0.001 to 0.99 | 0.001 to 0.999 | > 44 |
| COC(=O)N[C@H](C(=O)N1CCC[C@H]1c1ncc(-c2ccc(-c3ccc4c(ccc5nc([C@@H]6[C@H]7CC[C@H](C7)N6C(=O)[C@H](NC(=O)OC)c6ccccc6)[nH]c54)c3)cc2)[nH]1)C(C)C [Example 410] | 1 to 44 | 0.018 | 0.001 to 0.99 | 0.001 to 0.999 | 0.001 to 0.99 | 0.001 to 0.999 | > 44 |
| COC(=O)N[C@H](C(=O)N1CC2(C[C@H]1c1nc3ccc4cc(-c5ccc(-c6cnc([C@@H]7CCCN7C(=O)[C@H](NC(=O)OC)c7ccccc7)[nH]6)cc5)ccc4c3[nH]1)OCCO2)C(C)C [Example 411] | 1 to 44 | 0.034 | 0.001 to 0.99 | 0.001 to 0.999 | 0.001 to 0.99 | 0.001 to 0.999 | 1 to 44 |
| COC(=O)N[C@H](C(=O)N1CCC[C@H]1c1nc2ccc3c4c(ccc3c2[nH]1)-c1ccc(-c2cnc([C@@H]3CCCN3C(=O)[C@H](NC(=O)OC)c3ccccc3)[nH]2)cc1CO4)C(C)C [Example 412] | 1 to 44 | 0.018 | 0.001 to 0.99 | 0.001 to 0.999 | 0.001 to 0.99 | 0.001 to 0.999 | 0.001 to 0.999 |
| COC(=O)N[C@H](C(=O)N1CCC[C@H]1c1ncc(-c2ccc3c(c2)COc2c-3ccc3c2ccc2nc([C@@H]4CCCN4C(=O)[C@H](NC(=O)OC)c4ccccc4)[nH]c23)[nH]1)C(C)C [Example 413] | 1 to 44 | 0.017 | 0.001 to 0.99 | 0.001 to 0.999 | 0.001 to 0.99 | 0.001 to 0.999 | 1 to 44 |
